What was measured:
[1] = oral, fasted subjects; cited from earlier work
[2] = Unbound cinacalcet fraction in plasma (30 kD ultrafiltration, RP-HPLC); format: in vitro ADME, rabbit; conditions: Recon conc. 1 mg/ml
Description: The unbound cinacalcet fractions in plasma were determined. The cinacalcet buffer solution and cinacalcet polymer micelles were mixed with rabbit plasma at 1:4 ratio, incubated at 37° C., and filtered through 30 kD ultrafiltration membrane. The filtrate and unfiltered plasma were mixed with acetonitrile at a ratio of 1:4, and the cinacalcet concentrations were determined by an RP-HPLC. Table 10 presents unbound (filtered) and total (unfiltered) cinacalcet concentrations, and calculated % unbound fractions (unbound concentration divided by total concentration).

Structure (SMILES): C[C@@H](NCCCc1cccc(C(F)(F)F)c1)c1cccc2ccccc12 [cinacalcet]
- Absolute bioavailability [1]: 20-25%
- Total conc. ([2]; 1:4 with rabbit plasma, 37° C.): 0.84 ± 0.01 mg/mL
- Unbound concentration ([2]; 5 min): 92 ± 16 µg/mL
- fraction unbound at 5 min, 0.2 mg/mL ([2]; rabbit, rabbit plasma, 5 min): 0.11
